{"source": "patent US20240139196A1", "about": "“COMBINATION TREATMENTS IN DIFFICULT TO TREAT PATIENTS WITH ADVANCED AND/OR METASTATIC TROP-2 OVEREXPRESSING CANCERS” (G1 Therapeutics, Inc., priority 2021, published 2024)", "key": {"[1]": {"test_system": "patients with unresectable locally advanced or metastatic TNBC who received at least 2 prior treatments", "test": "Phase 2 single-arm open-label study of trilaciclib administered prior to sacituzumab govitecan-hziy (NCT05113966)", "type": "in vivo, human", "details": "for Grade ≥3 TRAEs related to the named study drug / patients with AEs related to the named study drug: combination study, attribution by investigators", "experimental": "Early results from initial human clinical trials (see, e.g., NCT05113966) have shown trilaciclib's ability to drastically reduce side effects associated with sacituzumab govitecan administration, including a reduction in the incidence of severe (Grade 3/4) neutropenia (see, for example, Example 1, FIG. 2A). In the initial studies, 8 female patients (median age 55.0 years) had been enrolled and completed a median 3 (range 1-6) 21-day cycles, wherein sacituzumab govitecan was administered on days 1 and 8 of each 21-day cycle, and trilaciclib was administered over a 30 minute intravenous administration within 4 hours prior to administration of sacituzumab govitecan on days 1 and 8 of each 21-day cycle (see, e.g., FIG. 1). All patients had received a prior taxane and 7 had received a prior immune checkpoint inhibitor (5 atezolizumab, 2 pembrolizumab; 4 in the adjuvant setting, 3 in the metastatic setting). Severe (Grade 3/4) neutropenia occurred in only 1 patient (12.5% with trilaciclib compared with 52% in the ASCENT study). No patients had Grade 3/4 anemia or thrombocytopenia, and none had febrile neutropenia or a serious infection. Granulocyte colony-stimulating factors were administered to 2 patients (25%) and 1 patient required intravenous antibiotics. No patients required red blood cell/platelet transfusions or erythropoiesis-stimulating agents. […] There was only 1 treatment-related adverse event of diarrhea.\nFIG. 1 is a schematic of a human clinical trial assessing the safety and efficacy of trilaciclib administered with sacituzumab govitecan-hziy (Trodelvy®) in patients with locally advanced or metastatic TNBC who received at least 2 prior treatments, at least 1 in the metastatic setting. The study will include 3 study phases: Screening Phase, treatment Phase, and Survival Follow-up Phase. The treatment phase consists of 21-day cycles: Trilaciclib will be administered IV prior to sacituzumab govitecan-hziy infusions. Trilaciclib will be administered via IV prior to sacituzumab govitecan-hziy administration at 240 mg/m^2. Sacituzumab govitecan-hziy will be administered via IV at 10 mg/kg. The study will include 3 study phases: Screening Phase, Treatment Phase, and Survival Follow up Phase. The Treatment Phase begins on the day of the first dose of study treatment and completes at the Safety Follow-up Visit. The first Survival Follow-up assessment should occur approximately 3 months after the End of Treatment Visit. DC=discontinuation, PD=Progressive disease, PI=Principal Investigator, WD=Withdraw.\nAn exploratory Phase 2, multicenter, open-label study evaluating the safety and efficacy of trilaciclib administered with sacituzumab govitecan-hziy in patients with unresectable locally advanced or metastatic TNBC who received at least 2 prior treatments, at least 1 in the metastatic setting, is provided herein.\nTrilaciclib plus sacituzumab govitecan-hziy will be administered intravenously (IV) in 21-day cycles as follows: • Trilaciclib 240 mg/m^2 administered as a 30-minute IV infusion completed within 4 hours prior to the start of sacituzumab govitecan-hziy on Day 1 and Day 8 of each 21-day treatment cycle. • Sacituzumab govitecan-hziy 10 mg/kg administered IV on Day 1 and Day 8 of each 21-day treatment cycle.\nThe first infusion of sacituzumab govitecan-hziy is administered over 3 hours and the patient is observed during the infusion and for at least 30 minutes following the initial dose for signs or symptoms of infusion-related reactions. Subsequent infusions of sacituzumab govitecan-hziy may be administered over 1 to 2 hours if prior infusions were tolerated and patients should be observed during the infusion and for at least 30 minutes after infusion. […]"}, "[2]": {"test_system": "patients with PD-L1 positive locally advanced unresectable/metastatic TNBC", "details": "cited from earlier work"}, "[3]": {"test_system": "patients with unresectable locally advanced/metastatic triple-negative breast cancer, PD-L1 positive", "details": "paclitaxel with vs without atezolizumab, cited from earlier work"}, "[4]": {"test_system": "patients with mUC", "details": "in vivo; cited from earlier work"}, "[5]": {"test_system": "patients with unresectable locally advanced or metastatic triple-negative breast cancer (mTNBC)", "details": "cited from earlier work"}, "[6]": {"test_system": "patients with metastatic TNBC", "details": "N=108; cited from earlier work"}, "[7]": {"test_system": "patients with locally advanced or mUC after platinum-containing chemotherapy and PD-1 or PD-L1 inhibitor", "details": "cited from earlier work"}, "[8]": {"test_system": "patients treated with sacituzumab govitecan-hziy", "details": "cited from earlier work"}, "[9]": {"test_system": "patients with metastatic urothelial carcinoma (mUC) progressing after platinum-based chemotherapy and ICIs", "details": "following progression; cited from earlier work"}, "[10]": {"test_system": "patients with locally recurrent unresectable or metastatic TNBC whose tumors express PD-L1 (CPS ≥10)", "details": "cited from earlier work"}, "[11]": {"details": "trilaciclib prior to sacituzumab govitecan, 8 patients"}, "[12]": {"details": "trilaciclib prior to sacituzumab govitecan, RECIST v1.1, 8 patients"}, "[13]": {"details": "mTNBC relapsed after at least two prior chemotherapies"}, "[14]": {"details": "vs physician's choice of single-agent chemotherapy"}}, "note": "“And” between values parts separate entries of the source, which are not always exact repeats. Equal values may be shown once. “Also recorded” adds a separate entry of the source.", "data": [{"compound": "CN1CCN(c2ccc(Nc3ncc4cc5n(c4n3)C3(CCCCC3)CNC5=O)nc2)CC1", "note": "[trilaciclib, 2′-((5-(4-methylpiperazin-1-yl)pyridin-2-yl)amino)-7′,8′-dihydro-6′H-spiro(cyclohexane-1,9′-pyrazino(1′,2′:1,5)pyrrolo(2,3-d)pyrimidin)-6′-one]", "values": [{"measurement": "Grade ≥3 TRAEs related to the named study drug", "setting": "[1]; 8 patients", "value": "Grade 4 neutrophil count decreased"}, {"measurement": "patients with AEs related to the named study drug", "setting": "[1]; 8 patients", "value": 2, "unit": "patients"}, {"measurement": "effect of inclusion of trilaciclib on side effects associated with sacituzumab govitecan", "setting": "[1]; initial studies, compared with ASCENT study", "value": "drastically reduces the side effects"}, {"measurement": "Severe (Grade 3/4) neutropenia, number of patients", "setting": "[1]; trilaciclib 240 mg/m^2 IV within 4 hours prior to sacituzumab govitecan-hziy 10 mg/kg, days 1 and 8 of 21-day cycles, 8 patients", "value": 1, "unit": "patient"}, {"measurement": "tolerability", "setting": "[1]; trilaciclib administered prior to sacituzumab govitecan, preliminary data", "value": "well tolerated"}, {"measurement": "Severe (Grade 3/4) neutropenia, percentage of patients", "setting": "[1]; trilaciclib prior to sacituzumab govitecan, days 1 and 8 of 21-day cycles, 8 patients", "value": 12.5, "unit": "%"}, {"measurement": "Grade 3/4 anemia, patients", "setting": "[1]; [11]", "value": "No patients"}, {"measurement": "Grade 3/4 thrombocytopenia, patients", "setting": "[1]; [11]", "value": "No patients"}, {"measurement": "Granulocyte colony-stimulating factors administered, number of patients", "setting": "[1]; [11]", "value": 2, "unit": "patients"}, {"measurement": "Granulocyte colony-stimulating factors administered, percentage of patients", "setting": "[1]; [11]", "value": 25, "unit": "%"}, {"measurement": "febrile neutropenia, patients", "setting": "[1]; [11]", "value": "none"}, {"measurement": "patients with Grade ≥3 TRAEs", "setting": "[1]; [11]", "value": "Two"}, {"measurement": "patients with ≥1 treatment-related adverse event (TRAE)", "setting": "[1]; [11]", "value": 5, "unit": "patients"}, {"measurement": "required erythropoiesis-stimulating agents, patients", "setting": "[1]; [11]", "value": "No patients"}, {"measurement": "required intravenous antibiotics, number of patients", "setting": "[1]; [11]", "value": 1, "unit": "patient"}, {"measurement": "required red blood cell/platelet transfusions, patients", "setting": "[1]; [11]", "value": "No patients"}, {"measurement": "serious adverse events reported to date", "setting": "[1]; [11]", "value": "no serious AEs; also recorded: no serious adverse events"}, {"measurement": "serious infection, patients", "setting": "[1]; [11]", "value": "none"}, {"measurement": "withdrawn due to an adverse event, patients", "setting": "[1]; [11]", "value": "No patients"}, {"measurement": "treatment-related adverse event (TRAE) of diarrhea, number", "setting": "[1]; trilaciclib prior to sacituzumab govitecan, 8 patients, trilaciclib- and sacituzumab govitecan-related", "value": 1}, {"measurement": "partial response, number of patients", "setting": "[1]; [12]", "value": "one"}, {"measurement": "stable disease, number of patients", "setting": "[1]; [12]", "value": "three"}]}, {"compound": "atezolizumab: a programmed death-ligand 1 (PD-L1) blocking antibody (immune checkpoint inhibitor)", "values": [{"measurement": "survival (lived for an average of)", "setting": "[2]; PD-L1 positive subset, atezolizumab or placebo plus nab-paclitaxel", "value": 25, "unit": "months"}, {"measurement": "median progression-free survival (PFS)", "setting": "[2]; PD-L1 positive tumors, atezolizumab plus nab-paclitaxel vs placebo plus nab-paclitaxel", "value": 7.4, "unit": "months"}, {"measurement": "PFS hazard ratio [HR]", "setting": "[2]; PD-L1 positive, atezolizumab plus nab-paclitaxel vs placebo plus nab-paclitaxel", "value": 0.60}, {"measurement": "PFS HR", "setting": "[3]; frontline", "value": 0.82}, {"measurement": "survival HR", "setting": "[3]", "value": 1.11}]}, {"compound": "COc1cc(OC)cc(N(CCNC(C)C)c2ccc3ncc(-c4cnn(C)c4)nc3c2)c1", "note": "[erdafitinib]", "values": [{"measurement": "objective response rates (ORRs)", "setting": "[4]", "value": "approximately 40%"}]}, {"compound": "sacituzumab govitecan", "values": [{"measurement": "Grade ≥3 TRAEs related to the named study drug", "setting": "[1]; 8 patients", "value": "Grade 3 alopecia and Grade 3 neutropenia; also recorded: Grade 4 neutrophil count decreased"}, {"measurement": "patients with AEs related to the named study drug", "setting": "[1]; 8 patients", "value": 5, "unit": "patients"}, {"measurement": "Severe (Grade 3/4) neutropenia, patients", "setting": "[5]; ASCENT study, without trilaciclib", "value": 52, "unit": "%"}, {"measurement": "G-CSF used as a rescue therapy, patients", "setting": "[5]; ASCENT study", "value": 44, "unit": "%"}, {"measurement": "adverse reaction leading to a dose reduction, patients", "setting": "[5]; ASCENT study", "value": 22, "unit": "%"}, {"measurement": "adverse reaction leading to treatment interruption, patients", "setting": "[5]; ASCENT study", "value": 45, "unit": "%"}, {"measurement": "permanently discontinued for adverse reactions, patients", "setting": "[5]; mTNBC patients, ASCENT study", "value": 5, "unit": "%"}, {"measurement": "median overall survival (OS)", "setting": "[5]; [13]", "value": 11.8, "unit": "months"}, {"measurement": "median progression free survival (PFS)", "setting": "[5]; [13]", "value": 4.8, "unit": "months"}, {"measurement": "OS hazard ratio (HR)", "setting": "[5]; [14]", "value": 0.51}, {"measurement": "PFS hazard ratio [HR]", "setting": "[5]; [14]", "value": 0.43}, {"measurement": "ORR", "setting": "[6]", "value": 33.3, "unit": "%"}, {"measurement": "median duration of response (DOR)", "setting": "[6]", "value": 7.7, "unit": "months"}, {"measurement": "patients having a DOR of ≥6 months", "setting": "[6]", "value": 55.5, "unit": "%"}, {"measurement": "patients having a DOR of ≥12 months", "setting": "[6]", "value": 16.7, "unit": "%"}, {"measurement": "objective (overall) response rate (ORR)", "setting": "[7]; 10 mg/kg intravenously, days 1 and 8 of a 21-day cycle, 112 patients, RECIST 1.1", "value": 27.7, "unit": "%"}, {"measurement": "median duration of response (DOR)", "setting": "[7]; 10 mg/kg intravenously, days 1 and 8 of a 21-day cycle", "value": "7.2 months and 7.1 months"}, {"measurement": "complete responses", "setting": "[7]; 112 patients", "value": 5.4, "unit": "%"}, {"measurement": "partial responses", "setting": "[7]; 112 patients", "value": 22.3, "unit": "%"}, {"measurement": "Diarrhea, patients", "setting": "[8]; all grades, all patients treated", "value": 65, "unit": "%"}, {"measurement": "neutropenia, patients", "setting": "[8]; all grades", "value": 61, "unit": "%"}, {"measurement": "Grade 3-4 diarrhea, patients", "setting": "[8]; all patients treated", "value": 12, "unit": "%"}, {"measurement": "Grade 3-4 neutropenia, patients", "setting": "[8]; in vivo", "value": 47, "unit": "%"}, {"measurement": "Neutropenic colitis, patients", "setting": "[8]; in vivo", "value": 0.5, "unit": "%"}, {"measurement": "febrile neutropenia, patients", "setting": "[8]; in vivo", "value": 7, "unit": "%"}, {"measurement": "intestinal perforation following diarrhea, number of patients", "setting": "[8]; in vivo", "value": "One"}]}, {"compound": "CC[C@]12C=CCN3CC[C@@]4(c5cc([C@@]6(C(=O)OC)C[C@@H]7C[C@@H](C(C)(F)F)CN(Cc8c6[nH]c6ccccc86)C7)c(OC)cc5N(C)[C@H]4[C@@](O)(C(=O)OC)[C@@H]1OC(C)=O)[C@@H]32", "note": "[vinflunine]", "values": [{"measurement": "median overall survival (OS)", "setting": "[9]", "value": "7-8 months"}, {"measurement": "response rates", "setting": "[9]", "value": "approximately 10%"}]}, {"compound": "pembrolizumab: PD-1 inhibitor given in combination with chemotherapy for PD-L1 expressing TNBC", "values": [{"measurement": "median PFS", "setting": "[10]; pembrolizumab plus chemotherapy arm", "value": 9.7, "unit": "months"}, {"measurement": "PFS HR", "setting": "[10]; pembrolizumab plus chemotherapy vs placebo arm", "value": 0.65}]}]}
